From patent US10358434B2, “2-(3-pyridinyl)-1H-benzimidazole derivative compound and medicament containing same” (NIHON MEDI-PHYSICS CO., LTD., priority 2014, dated 2019)

Assays:
[1] = Plasma stability evaluation (TLC analysis); format: in vitro ADME; settings: 37° C., 60 minutes, TLC analysis
In short: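 Radiolabelled compounds were incubated in heparin-treated pooled normal human plasma at 37° C for 60 minutes. After methanol deproteinization and centrifugation, stability was assessed by TLC under the conditions used for each compound's synthesis.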

[2] = In vivo kinetics experiment (radioactivity distribution); set-up: species or system Wistar male rat; settings: rat i.v., mean ± SD
In short: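 Male Wistar rats (9 weeks) under isoflurane received approximately 1 to 3.7 MBq radiotracer in saline with 1 w/v % ascorbic acid by tail-vein injection. At 10, 30 and 60 min, rats were exsanguinated; blood, organs and remaining body weighed and counted, giving % ID/g and adrenal-to-tissue ratios.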

[3] = test system: human adrenal gland section expressing aldosterone-producing adenoma; assay: In vitro autoradiography using human adrenal adenoma; format: binding; settings: section of FIG. 17(b)
In short: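 Frozen 7-μm sections of human adrenal bearing aldosterone-producing adenoma were immersed 10 min in radioligand (5-33 kBq/mL) in PBS with 1% fatty-acid-free BSA, washed, then exposed to imaging plates for 16-20 h. Equal-area ROI PSL in adenoma (B2) versus normal cortex (B1) gave B2/B1, corrected for nuclide half-life, added activity and exposure time.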

Radiochemical purity after incubation in human plasma [1]: 90% | Adrenal gland/blood ratio of radioactivity accumulation ([2]; 10 min after administration): 39.83 ± 1.25 | Adrenal gland/fat ratio of radioactivity accumulation ([2]; 10 min after administration): 41.90 ± 6.19 | Adrenal gland/kidney ratio of radioactivity accumulation ([2]; 10 min after administration): 2.61 ± 0.04 | Adrenal gland/liver ratio of radioactivity accumulation ([2]; 10 min after administration): 1.38 ± 0.01 | Adrenal gland/muscle ratio of radioactivity accumulation ([2]; 10 min after administration): 36.77 ± 3.87 | Adrenal gland/small intestine ratio of radioactivity accumulation ([2]; 10 min after administration): 2.44 ± 0.80 | Radioactivity distribution Adrenal gland ([2]; 10 min after administration): 5.67 ± 0.25 % ID/g | Radioactivity distribution Bladder (including urine) ([2]; 10 min after administration): 0.09 ± 0.06 % ID/g | Radioactivity distribution Blood ([2]; 10 min after administration): 0.14 ± 0.00 % ID/g | Radioactivity distribution Fat ([2]; 10 min after administration): 0.14 ± 0.02 % ID/g | Radioactivity distribution Femur ([2]; 10 min after administration): 0.51 ± 0.02 % ID/g | Radioactivity distribution Heart ([2]; 10 min after administration): 0.73 ± 0.06 % ID/g | Radioactivity distribution Kidney ([2]; 10 min after administration): 2.17 ± 0.09 % ID/g | Radioactivity distribution Large intestine ([2]; 10 min after administration): 0.13 ± 0.01 % ID/g | Radioactivity distribution Liver ([2]; 10 min after administration): 4.12 ± 0.23 % ID/g | Radioactivity distribution Lung ([2]; 10 min after administration): 1.94 ± 0.16 % ID/g | Radioactivity distribution Muscle (lower limbs) ([2]; 10 min after administration): 0.16 ± 0.01 % ID/g | Radioactivity distribution Remaining whole body ([2]; 10 min after administration): 0.20 ± 0.01 % ID/g | Radioactivity distribution Small intestine ([2]; 10 min after administration): 2.46 ± 0.61 % ID/g | Radioactivity distribution Spleen ([2]; 10 min after administration): 1.08 ± 0.10 % ID/g | Radioactivity distribution Stomach ([2]; 10 min after administration): 0.80 ± 0.23 % ID/g | Radioactivity distribution Testis ([2]; 10 min after administration): 0.03 ± 0.00 % ID/g | Radioactivity distribution Whole brain ([2]; 10 min after administration): 0.03 ± 0.00 % ID/g | Adrenal gland/blood ratio of radioactivity accumulation ([2]; 30 min after administration): 26.42 ± 7.24 | Adrenal gland/fat ratio of radioactivity accumulation ([2]; 30 min after administration): 22.69 ± 9.87 | Adrenal gland/kidney ratio of radioactivity accumulation ([2]; 30 min after administration): 2.58 ± 0.55 | Adrenal gland/liver ratio of radioactivity accumulation ([2]; 30 min after administration): 1.14 ± 0.36 | Adrenal gland/muscle ratio of radioactivity accumulation ([2]; 30 min after administration): 14.44 ± 5.54 | Adrenal gland/small intestine ratio of radioactivity accumulation ([2]; 30 min after administration): 0.79 ± 0.34 | Radioactivity distribution Adrenal gland ([2]; 30 min after administration): 3.10 ± 1.06 % ID/g | Radioactivity distribution Bladder (including urine) ([2]; 30 min after administration): 0.15 ± 0.01 % ID/g | Radioactivity distribution Blood ([2]; 30 min after administration): 0.12 ± 0.01 % ID/g | Radioactivity distribution Fat ([2]; 30 min after administration): 0.14 ± 0.03 % ID/g | Radioactivity distribution Femur ([2]; 30 min after administration): 0.44 ± 0.04 % ID/g | Radioactivity distribution Heart ([2]; 30 min after administration): 0.52 ± 0.04 % ID/g | Radioactivity distribution Kidney ([2]; 30 min after administration): 1.18 ± 0.14 % ID/g | Radioactivity distribution Large intestine ([2]; 30 min after administration): 0.16 ± 0.01 % ID/g | Radioactivity distribution Liver ([2]; 30 min after administration): 2.72 ± 0.12 % ID/g | Radioactivity distribution Lung ([2]; 30 min after administration): 0.99 ± 0.10 % ID/g | Radioactivity distribution Muscle (lower limbs) ([2]; 30 min after administration): 0.22 ± 0.02 % ID/g | Radioactivity distribution Remaining whole body ([2]; 30 min after administration): 0.21 ± 0.02 % ID/g | Radioactivity distribution Small intestine ([2]; 30 min after administration): 3.99 ± 0.33 % ID/g | Radioactivity distribution Spleen ([2]; 30 min after administration): 0.58 ± 0.09 % ID/g | Radioactivity distribution Stomach ([2]; 30 min after administration): 1.38 ± 0.42 % ID/g | Radioactivity distribution Testis ([2]; 30 min after administration): 0.03 ± 0.00 % ID/g | Radioactivity distribution Whole brain ([2]; 30 min after administration): 0.03 ± 0.00 % ID/g | Adrenal gland/blood ratio of radioactivity accumulation ([2]; 60 min after administration): 20.07 ± 1.94 | Adrenal gland/fat ratio of radioactivity accumulation ([2]; 60 min after administration): 10.82 ± 1.23 | Adrenal gland/kidney ratio of radioactivity accumulation ([2]; 60 min after administration): 2.05 ± 0.09 | Adrenal gland/liver ratio of radioactivity accumulation ([2]; 60 min after administration): 0.88 ± 0.05 | Adrenal gland/muscle ratio of radioactivity accumulation ([2]; 60 min after administration): 10.90 ± 0.67 | Adrenal gland/small intestine ratio of radioactivity accumulation ([2]; 60 min after administration): 0.26 ± 0.08 | Radioactivity distribution Adrenal gland ([2]; 60 min after administration): 1.70 ± 0.21 % ID/g | Radioactivity distribution Bladder (including urine) ([2]; 60 min after administration): 0.13 ± 0.05 % ID/g | Radioactivity distribution Blood ([2]; 60 min after administration): 0.09 ± 0.02 % ID/g | Radioactivity distribution Fat ([2]; 60 min after administration): 0.16 ± 0.02 % ID/g | Radioactivity distribution Femur ([2]; 60 min after administration): 0.36 ± 0.03 % ID/g | Radioactivity distribution Heart ([2]; 60 min after administration): 0.35 ± 0.09 % ID/g | Radioactivity distribution Kidney ([2]; 60 min after administration): 0.83 ± 0.10 % ID/g | Radioactivity distribution Large intestine ([2]; 60 min after administration): 0.19 ± 0.03 % ID/g | Radioactivity distribution Liver ([2]; 60 min after administration): 1.93 ± 0.37 % ID/g | Radioactivity distribution Lung ([2]; 60 min after administration): 0.56 ± 0.15 % ID/g | Radioactivity distribution Muscle (lower limbs) ([2]; 60 min after administration): 0.16 ± 0.01 % ID/g | Radioactivity distribution Remaining whole body ([2]; 60 min after administration): 0.13 ± 0.02 % ID/g | Radioactivity distribution Small intestine ([2]; 60 min after administration): 6.65 ± 0.98 % ID/g | Radioactivity distribution Spleen ([2]; 60 min after administration): 0.34 ± 0.07 % ID/g | Radioactivity distribution Stomach ([2]; 60 min after administration): 2.22 ± 0.73 % ID/g | Radioactivity distribution Testis ([2]; 60 min after administration): 0.03 ± 0.01 % ID/g | Radioactivity distribution Whole brain ([2]; 60 min after administration): 0.02 ± 0.01 % ID/g
Compound: Fc1cc2nc(-c3cncc(Cn4ccnc4)c3)n(Cc3ccc([123I])cc3)c2cc1Cl [[^123I] 605, 6-Chloro-5-fluoro-1-(4-[^123I]iodobenzyl)-2-[5-(1H-imidazol-1-ylmethyl)-3-pyridinyl]-1H-benzimidazole]
B2/B1 accumulation ratio [3]: 0.94 | B2 (PSL value, aldosterone-producing adenoma) ([3]; site 71b): 4065 | B1 (PSL value, normal adrenal cortex) ([3]; site 72b): 4318
